For assay [1], the target named is T1, SNAP-eDHFR WT (Escherichia coli, UniProt P0ABQ4). The assay can be described thus: biochemical. The class given is binding.
In another assay the target is SNAP-eDHFR L54I (Escherichia coli, UniProt P0ABQ4, L54I). Kind of assay: biochemical. The assay is classed as binding.
The next assay concerns the target SNAP-eDHFR L54G (Escherichia coli, UniProt P0ABQ4, L54G). The assay can be described thus: biochemical. The assay is classed as binding.
Assay [2] has as its target T1, SNAP-eDHFR WT. The assay can be described thus: biochemical.
The target in a further assay is T2, PDE6D (Homo sapiens, UniProt O43924).
T2 construct: expressed in transfected cells; host or cells: U2OS
Kind of assay: Cell imaging assay in fixed U2OS cells. The class given is binding. The conditions noted are these: 100 nM atorvastatin-SNAP-EGFP. From the text:
(§1) Finally, we developed a binding assay applicable to fixed cells. Such an assay is desirable if the protein to be analyzed is insoluble or unstable in extracts. In this assay (Figure 1B, 7A), the epitope-tagged receptor protein is over-expressed in mammalian cells by transient transfection. The cells are fixed with paraformaldehyde and permeabilized with nonionic detergent. The expression of the receptor protein is then confirmed by visualization with the anti-epitope tag antibody conjugated with a fluorophore using immunofluorescence microscopy. In parallel, the ligand-protein interaction is examined with the aid of BG-derivatized ligand conjugated to EGFP via SNAP-tag. […] We evaluated the generality of this method using other previously validated drug-protein interactions (PDE6D-atorvastatin, PTK2B-purvalanol B, and FYN-dasatinib). Binding of all three pairs was detected with this method (Figure S3).
(§2) Supplementary file pone.0037598.s003.tif: Figure S3 Cell imaging assay using validated drug-receptor pairs. (A) U2OS cells were transfected with a plasmid which express V5 tagged PDE6D. One day after transfection, cells were fixed with 4% paraformaldehyde, and permeabilized with 0.1% Tritin X-100. After washing, the cells were incubated with anti-V5-antibody conjugated with FITC or 100 nM atorvastatin-SNAP-EGFP. Fluorescence images (GFP filter) were taken within 30 min after washing of the cells. (B) (C) Cell imaging assay using pairs of purvalanol B-PTK2B and dasatinib-FYN, respectively. (TIF) Click here for additional data file.

For a further assay, the target named is T3, FYN (Homo sapiens, UniProt P06241).
T3 construct: expressed in transfected cells; host or cells: U2OS
The assay can be described thus: Cell imaging assay in fixed U2OS cells. The assay is classed as binding. The conditions noted are these: ligand as SNAP-EGFP conjugate.
From the text: as §1, §2

The target of another assay is T4, SNAP-ORP7 (Homo sapiens, UniProt Q9BZF2).
T4 construct: strep-tag (N); made in house; host or cells: HEK293 (suspension HEK-293E), transient transfection, Strep-tactin purified
T4 sequence (Q9BZF2 1-842): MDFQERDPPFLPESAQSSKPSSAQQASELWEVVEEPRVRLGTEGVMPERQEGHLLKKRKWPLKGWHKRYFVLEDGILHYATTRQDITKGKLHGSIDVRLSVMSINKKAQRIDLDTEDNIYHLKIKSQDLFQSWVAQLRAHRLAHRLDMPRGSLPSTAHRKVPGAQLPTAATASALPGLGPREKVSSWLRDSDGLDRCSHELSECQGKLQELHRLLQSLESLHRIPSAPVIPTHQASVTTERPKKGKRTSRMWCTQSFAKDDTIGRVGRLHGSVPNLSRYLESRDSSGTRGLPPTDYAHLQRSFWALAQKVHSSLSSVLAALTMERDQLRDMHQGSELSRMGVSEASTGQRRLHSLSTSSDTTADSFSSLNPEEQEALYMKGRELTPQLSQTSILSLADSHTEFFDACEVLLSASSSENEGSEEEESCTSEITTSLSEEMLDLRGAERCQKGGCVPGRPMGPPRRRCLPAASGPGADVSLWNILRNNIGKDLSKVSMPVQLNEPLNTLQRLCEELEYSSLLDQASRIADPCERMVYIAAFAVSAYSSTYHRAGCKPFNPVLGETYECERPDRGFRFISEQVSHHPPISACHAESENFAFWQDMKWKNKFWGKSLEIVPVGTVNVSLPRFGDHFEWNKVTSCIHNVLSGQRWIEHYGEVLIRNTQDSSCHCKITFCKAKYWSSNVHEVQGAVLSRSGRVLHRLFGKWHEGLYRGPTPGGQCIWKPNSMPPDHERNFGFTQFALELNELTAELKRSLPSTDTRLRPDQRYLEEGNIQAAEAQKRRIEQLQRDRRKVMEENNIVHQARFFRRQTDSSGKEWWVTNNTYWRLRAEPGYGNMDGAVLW
The assay is classed as binding. The conditions noted are these: HEK293 cell extract, free erlotinib 10 µM.

The next assay deals with T5, PTK2B (Homo sapiens, UniProt Q14289).
T5 construct: expressed in transfected cells; host or cells: U2OS
The assay can be described thus: Cell imaging assay in fixed U2OS cells. The assay is classed as binding. The conditions noted are these: ligand as SNAP-EGFP conjugate.
From the text: as §1, §2

Assay [3] has as its system eDHFR (every eDHFR mutant). Kind of assay: SNAP-based TR-FRET competition assay using MTX and MTX-BG as competitors. The conditions noted are these: MTX-BG vs MTX, 100 µM NADPH. The assay is classed as binding, Escherichia coli. (TR-FRET usually uses a lanthanide donor and a delayed reading to cut background.)

What is called Kd is the concentration at which binding is half-saturated. Low values mean a tighter complex, high ones a looser complex. A word on the IC50: it is the midpoint of a concentration-inhibition curve. A higher IC50 goes with lower potency. Regarding `COc1cc(NCc2ccc3nc(N)nc(N)c3c2C)cc(OC)c1OC` [Trimetrexate, trimetrexate], the Kd at SNAP-eDHFR WT [1] was found to be 0.15 ± 0.01 nM; at SNAP-eDHFR L54I, 0.1 ± 0.01 nM; on SNAP-eDHFR L54G, 0.64 ± 0.04 nM. Further, half-maximal inhibition against SNAP-eDHFR WT [2] (IC50) was put at 0.27 ± 0.03 nM.

As to `CC1(C)N=C(N)N=C(N)N1OCCCOc1cc(Cl)c(Cl)cc1Cl` [WR99210], the Kd turned out to be 12000 ± 950 nM on SNAP-eDHFR WT [1], 2600 ± 210 nM on SNAP-eDHFR L54I and 15000 ± 790 nM at SNAP-eDHFR L54G. Further, the half-inhibitory concentration (IC50) on SNAP-eDHFR WT [2] was 54000 ± 16000 nM.

For `CC(C)c1c(C(=O)Nc2ccccc2)c(-c2ccccc2)c(-c2ccc(F)cc2)n1CC[C@@H](O)C[C@@H](O)CC(=O)O` [atorvastatin], at PDE6D, the “Binding detected by cell imaging, PDE6D” value is “detected”.

`Cc1nc(Nc2ncc(C(=O)Nc3c(C)cccc3Cl)s2)cc(N2CCN(CCO)CC2)n1` [dasatinib]: the “Binding detected by cell imaging, FYN” value on FYN was “detected”.

For the molecule `C#Cc1cccc(Nc2ncnc3cc(OCCOC)c(OCCOC)cc23)c1` [erlotinib], the “Effect of free ligand on hetero-crosslinking product band” value on SNAP-ORP7 was “no longer detected”.

With `CC(C)[C@H](CO)Nc1nc(Nc2ccc(C(=O)O)c(Cl)c2)c2ncn(C(C)C)c2n1` [purvalanol B], on PTK2B, the “Binding detected by cell imaging, PTK2B” value was “detected”.

As to methotrexate-BG [MTX-BG], the “Change of Kd values by derivatization of MTX with BG” value in assay [3] is “about 10 fold”.
